Results: patent US6358885B1, “Substituted phenylheterocyclic herbicides” (Mississippi State University, priority 1992, dated 2002)

How the values were obtained:
Experiment in all cases: Test G preemergence/postemergence greenhouse plant response rating 0 to 100
[1] = tested on: alfalfa; assay type: in vivo, Medicago ativa; conditions: 0 to 100 scale
Text: (§1) Seeds, rhizomes, or plant parts of alfalfa (Medicago ativa), annual bluegrass (Poa annua), bermudagrass (Cynodon dactylon), broadleaf signalgrass (Brachiaria plantaginea), common purslane (Portulaca oleracea), common ragweed (Ambrosia elatior), […] (Paspalum dilatatum), goosegrass (Eleusine indica), guineagrass (Panicum maximum), […] exaltata), johnsongrass (Sorghum halepense), large crabgrass (Digitaria sanguinalis), peanut (Arachis hypoagaea), pitted morningglory (Ipomoea lacunosa), purple nutsedge (Cyperus rotundus), sandbur (Cenchrus echinatus), smooth crabgrass (Digitaria ischaemum) and yellow nutsedge (Cyperus esculentus) were planted into greenhouse pots containing greenhouse planting medium. Each pot contained only one plant species. The test compound was dissolved in a non-phytotoxic solvent and applied preemergence and/or postemergence to the plants. Preemergence applications were made within one day of planting the seeds or plant parts. Postemergence applications were applied when the plants were in the two to four leaf stage (three to twenty cm). Test chemicals were dissolved in a non-phytotoxic solvent and applied preemergence and postemergence to the plants. Untreated control plants and treated plants were placed in the greenhouse and visually evaluated for injury at 13 to 21 days after herbicide application. […] A dash (-) response indicates no test result.

[2] = tested on: annual bluegrass; assay type: in vivo, Poa annua; conditions: 0 to 100 scale
Text: as §1

[3] = tested on: bermudagrass; assay type: in vivo, Cynodon dactylon; conditions: 0 to 100 scale
Text: as §1

[4] = tested on: broadleaf signalgrass; assay type: in vivo, Brachiaria plantaginea; conditions: 0 to 100 scale
Text: as §1

[5] = tested on: common purslane; assay type: in vivo, Portulaca oleracea; conditions: 0 to 100 scale
Text: as §1

[6] = tested on: common ragweed; assay type: in vivo, Ambrosia elatior; conditions: 0 to 100 scale
Text: as §1

[7] = tested on: dallisgrass; assay type: in vivo, Paspalum dilatatum; conditions: 0 to 100 scale
Text: as §1

[8] = tested on: goosegrass; assay type: in vivo, Eleusine indica; conditions: 0 to 100 scale
Text: as §1

[9] = tested on: guineagrass; assay type: in vivo, Panicum maximum; conditions: 0 to 100 scale
Text: as §1

[10] = tested on: itchgrass; assay type: in vivo, Rottboellia exaltata; conditions: 0 to 100 scale
Text: as §1

[11] = tested on: johnsongrass; assay type: in vivo, Sorghum halepense; conditions: 0 to 100 scale
Text: as §1

[12] = tested on: large crabgrass; assay type: in vivo, Digitaria sanguinalis; conditions: 0 to 100 scale
Text: as §1

[13] = tested on: peanut; assay type: in vivo, Arachis hypoagaea; conditions: 0 to 100 scale
Text: as §1

[14] = tested on: pitted morningglory; assay type: in vivo, Ipomoea lacunosa; conditions: 0 to 100 scale
Text: as §1

[15] = tested on: purple nutsedge; assay type: in vivo, Cyperus rotundus; conditions: Rate 125 g/ha, 0 to 100 scale
Text: as §1

[16] = tested on: sandbur; assay type: in vivo, Cenchrus echinatus; conditions: 0 to 100 scale
Text: as §1

[17] = tested on: smooth crabgrass; assay type: in vivo, Digitaria ischaemum; conditions: 0 to 100 scale
Text: as §1

[18] = tested on: yellow nutsedge; assay type: in vivo, Cyperus esculentus; conditions: Rate 125 g/ha, 0 to 100 scale
Text: as §1

Fc1cc(Cl)c(OC2CCCC2)cc1-c1nn2c(c1Cl)CCCC2 [Compound 24]
Plant response rating, Alfalfa Var. ([1]; POSTEMERGENCE, Rate 125 g/ha): 0
Plant response rating, Alfalfa Var. ([1]; POSTEMERGENCE, Rate 250 g/ha): 20
Plant response rating, Alfalfa Var. ([1]; PREEMERGENCE, Rate 125 g/ha): 0
Plant response rating, Alfalfa Var. ([1]; PREEMERGENCE, Rate 250 g/ha): 0
Plant response rating, Ann Bluegrass ([2]; POSTEMERGENCE, Rate 125 g/ha): 0
Plant response rating, Ann Bluegrass ([2]; POSTEMERGENCE, Rate 250 g/ha): 0
Plant response rating, Ann Bluegrass ([2]; PREEMERGENCE, Rate 125 g/ha): 30
Plant response rating, Ann Bluegrass ([2]; PREEMERGENCE, Rate 250 g/ha): 0
Plant response rating, Bermudagrass ([3]; POSTEMERGENCE, Rate 125 g/ha): 0
Plant response rating, Bermudagrass ([3]; POSTEMERGENCE, Rate 250 g/ha): 0
Plant response rating, Bermudagrass ([3]; PREEMERGENCE, Rate 125 g/ha): 30
Plant response rating, Bermudagrass ([3]; PREEMERGENCE, Rate 250 g/ha): 0
Plant response rating, Brdlf Sgnlgrass ([4]; POSTEMERGENCE, Rate 125 g/ha): 0
Plant response rating, Brdlf Sgnlgrass ([4]; POSTEMERGENCE, Rate 250 g/ha): 0
Plant response rating, Brdlf Sgnlgrass ([4]; PREEMERGENCE, Rate 125 g/ha): 100
Plant response rating, Brdlf Sgnlgrass ([4]; PREEMERGENCE, Rate 250 g/ha): 0
Plant response rating, Cmn Purslane ([5]; POSTEMERGENCE, Rate 125 g/ha): 80
Plant response rating, Cmn Purslane ([5]; POSTEMERGENCE, Rate 250 g/ha): 70
Plant response rating, Cmn Purslane ([5]; PREEMERGENCE, Rate 125 g/ha): 0
Plant response rating, Cmn Purslane ([5]; PREEMERGENCE, Rate 250 g/ha): 0
Plant response rating, Cmn Ragweed ([6]; POSTEMERGENCE, Rate 125 g/ha): 50
Plant response rating, Cmn Ragweed ([6]; POSTEMERGENCE, Rate 250 g/ha): 0
Plant response rating, Cmn Ragweed ([6]; PREEMERGENCE, Rate 125 g/ha): 40
Plant response rating, Cmn Ragweed ([6]; PREEMERGENCE, Rate 250 g/ha): 0
Plant response rating, Dallisgrass ([7]; POSTEMERGENCE, Rate 125 g/ha): 0
Plant response rating, Dallisgrass ([7]; POSTEMERGENCE, Rate 250 g/ha): 0
Plant response rating, Dallisgrass ([7]; PREEMERGENCE, Rate 125 g/ha): 20
Plant response rating, Dallisgrass ([7]; PREEMERGENCE, Rate 250 g/ha): 30
Plant response rating, Goosegrass ([8]; POSTEMERGENCE, Rate 125 g/ha): 0
Plant response rating, Goosegrass ([8]; POSTEMERGENCE, Rate 250 g/ha): 0
Plant response rating, Goosegrass ([8]; PREEMERGENCE, Rate 125 g/ha): 90
Plant response rating, Goosegrass ([8]; PREEMERGENCE, Rate 250 g/ha): 40
Plant response rating, Guineagrass ([9]; POSTEMERGENCE, Rate 125 g/ha): 0
Plant response rating, Guineagrass ([9]; POSTEMERGENCE, Rate 250 g/ha): 0
Plant response rating, Guineagrass ([9]; PREEMERGENCE, Rate 125 g/ha): 0
Plant response rating, Guineagrass ([9]; PREEMERGENCE, Rate 250 g/ha): 0
Plant response rating, Itchgrass ([10]; POSTEMERGENCE, Rate 125 g/ha): 0
Plant response rating, Itchgrass ([10]; POSTEMERGENCE, Rate 250 g/ha): 0
Plant response rating, Itchgrass ([10]; PREEMERGENCE, Rate 125 g/ha): 100
Plant response rating, Itchgrass ([10]; PREEMERGENCE, Rate 250 g/ha): 20
Plant response rating, Johnsongrass ([11]; POSTEMERGENCE, Rate 125 g/ha): 0
Plant response rating, Johnsongrass ([11]; POSTEMERGENCE, Rate 250 g/ha): 0
Plant response rating, Johnsongrass ([11]; PREEMERGENCE, Rate 125 g/ha): 0
Plant response rating, Johnsongrass ([11]; PREEMERGENCE, Rate 250 g/ha): 0
Plant response rating, Large Crabgrass ([12]; POSTEMERGENCE, Rate 125 g/ha): 0
Plant response rating, Large Crabgrass ([12]; POSTEMERGENCE, Rate 250 g/ha): 0
Plant response rating, Large Crabgrass ([12]; PREEMERGENCE, Rate 125 g/ha): 80
Plant response rating, Large Crabgrass ([12]; PREEMERGENCE, Rate 250 g/ha): 90
Plant response rating, Peanuts ([13]; POSTEMERGENCE, Rate 125 g/ha): 0
Plant response rating, Peanuts ([13]; POSTEMERGENCE, Rate 250 g/ha): 0
Plant response rating, Peanuts ([13]; PREEMERGENCE, Rate 125 g/ha): 0
Plant response rating, Peanuts ([13]; PREEMERGENCE, Rate 250 g/ha): 0
Plant response rating, Pit Morninglory ([14]; POSTEMERGENCE, Rate 125 g/ha): 0
Plant response rating, Pit Morninglory ([14]; POSTEMERGENCE, Rate 250 g/ha): 30
Plant response rating, Pit Morninglory ([14]; PREEMERGENCE, Rate 125 g/ha): 0
Plant response rating, Pit Morninglory ([14]; PREEMERGENCE, Rate 250 g/ha): 50
Plant response rating, Purple Nutsedge ([15]; POSTEMERGENCE): 0
Plant response rating, Purple Nutsedge ([15]; PREEMERGENCE): 0
Plant response rating, S. Sandbur ([16]; POSTEMERGENCE, Rate 125 g/ha): 0
Plant response rating, S. Sandbur ([16]; POSTEMERGENCE, Rate 250 g/ha): 0
Plant response rating, S. Sandbur ([16]; PREEMERGENCE, Rate 125 g/ha): 40
Plant response rating, S. Sandbur ([16]; PREEMERGENCE, Rate 250 g/ha): 0
Plant response rating, Smooth Crabgras ([17]; POSTEMERGENCE, Rate 125 g/ha): 0
Plant response rating, Smooth Crabgras ([17]; POSTEMERGENCE, Rate 250 g/ha): 0
Plant response rating, Smooth Crabgras ([17]; PREEMERGENCE, Rate 125 g/ha): 0
Plant response rating, Smooth Crabgras ([17]; PREEMERGENCE, Rate 250 g/ha): 0
Plant response rating, Yellow Nutsedge ([18]; POSTEMERGENCE): 0
Plant response rating, Yellow Nutsedge ([18]; PREEMERGENCE): 0
